Key:
[1] = biological target: T1, rat native α7 receptors (Rattus norvegicus, UniProt Q05941); experiment: [3H]MLA radioligand binding, α7 NNR subtype, rat hippocampal membranes; settings: read-out: Ki, inhibition of [3H]methyllycaconitine (MLA) binding to rat native α7 receptors
T1 construct: rat native α7 receptors in rat hippocampal membranes; from tissue; host or cells: rat (female Sprague-Dawley) hippocampus membranes
Protocol: Rats (female, Sprague-Dawley), weighing 150-250 g, were maintained on a 12 h light/dark cycle and were allowed free access to water and food supplied by PMI Nutrition International, Inc. Animals were anesthetized with 70% CO2, and then decapitated. Brains were removed and placed on an ice-cold platform. The hippocampus was removed and placed in 10 volumes (weight:volume) of ice-cold preparative buffer (137 mM NaCl, 10.7 mM KCl, 5.8 mM KH2PO4, 8 mM Na2HPO4, 20 mM HEPES (free acid), 5 mM iodoacetamide, 1.6 mM EDTA, pH 7.4); PMSF, dissolved in methanol to a final concentration of 100 μM, was added and the tissue suspension was homogenized by Polytron. […] Protein was determined by the method of Lowry et al., J. Biol. Chem. 193: 265 (1951), using bovine serum albumin as the standard.
The binding of [^3H]MLA was measured using a modification of the methods of Davies et al., Neuropharmacol. […] The binding of [^3H]MLA was determined using a 2 h incubation at 21° C. […] Non-specific binding was determined by inclusion of 50 μM non-radioactive MLA in selected wells.
The inhibition of [^3H]MLA binding by test compounds was determined by including seven different concentrations of the test compound in selected wells. […] Inhibition constants (Ki values), reported in nM, were calculated from the IC50 values using the method of Cheng et al., Biochem. Pharmacol. 22: 3099-3108 (1973).

[2] = biological target: T2, human recombinant α4β4 nicotinic receptors (Homo sapiens, UniProt P30926+P43681); experiment: [3H]epibatidine binding, SH-EP1 membranes
T2 construct: expressed in transfected cells; host or cells: SH-EP1
T2 sequence (P43681 29-627 limits assumed): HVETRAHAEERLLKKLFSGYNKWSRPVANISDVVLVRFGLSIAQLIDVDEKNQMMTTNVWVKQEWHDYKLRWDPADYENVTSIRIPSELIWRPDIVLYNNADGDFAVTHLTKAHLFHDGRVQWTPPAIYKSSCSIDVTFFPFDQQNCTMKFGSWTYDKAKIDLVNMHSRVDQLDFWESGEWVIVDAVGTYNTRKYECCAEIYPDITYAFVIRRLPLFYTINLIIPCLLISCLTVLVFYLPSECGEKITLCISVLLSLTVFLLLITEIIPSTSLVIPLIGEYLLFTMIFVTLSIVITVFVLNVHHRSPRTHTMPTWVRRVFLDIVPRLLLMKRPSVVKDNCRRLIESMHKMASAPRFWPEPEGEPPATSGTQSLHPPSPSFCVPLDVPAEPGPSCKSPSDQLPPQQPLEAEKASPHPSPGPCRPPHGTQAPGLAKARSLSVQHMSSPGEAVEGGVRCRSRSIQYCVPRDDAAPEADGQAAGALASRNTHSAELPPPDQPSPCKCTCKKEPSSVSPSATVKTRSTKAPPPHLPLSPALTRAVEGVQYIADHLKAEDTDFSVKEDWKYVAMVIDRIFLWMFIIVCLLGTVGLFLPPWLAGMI
T2 sequence (P30926 22-498): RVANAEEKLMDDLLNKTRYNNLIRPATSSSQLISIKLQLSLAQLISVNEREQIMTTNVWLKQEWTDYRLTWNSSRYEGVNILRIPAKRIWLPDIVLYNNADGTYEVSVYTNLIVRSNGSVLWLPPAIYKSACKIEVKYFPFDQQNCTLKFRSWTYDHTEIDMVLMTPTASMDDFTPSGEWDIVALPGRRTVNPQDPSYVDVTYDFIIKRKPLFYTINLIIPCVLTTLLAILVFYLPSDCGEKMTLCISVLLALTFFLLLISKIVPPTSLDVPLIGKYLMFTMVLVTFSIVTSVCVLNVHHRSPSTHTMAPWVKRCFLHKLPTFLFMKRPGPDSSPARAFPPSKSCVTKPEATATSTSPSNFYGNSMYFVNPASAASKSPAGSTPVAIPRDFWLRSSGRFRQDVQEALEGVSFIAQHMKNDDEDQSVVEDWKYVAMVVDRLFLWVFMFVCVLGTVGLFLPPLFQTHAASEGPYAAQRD

[3] = biological target: T3, rat native α4β2 receptors (Rattus norvegicus, UniProt P09483+P12390); experiment: Radioligand binding, rat cortex membranes (α4β2); settings: read-out: Ki, inhibition of [3H]epibatidine binding to rat native α4β2 receptors
T3 construct: rat native α4β2 receptors; from tissue; host or cells: rat (female Sprague-Dawley) cerebral cortex membranes
T3 sequence (P09483 31-630): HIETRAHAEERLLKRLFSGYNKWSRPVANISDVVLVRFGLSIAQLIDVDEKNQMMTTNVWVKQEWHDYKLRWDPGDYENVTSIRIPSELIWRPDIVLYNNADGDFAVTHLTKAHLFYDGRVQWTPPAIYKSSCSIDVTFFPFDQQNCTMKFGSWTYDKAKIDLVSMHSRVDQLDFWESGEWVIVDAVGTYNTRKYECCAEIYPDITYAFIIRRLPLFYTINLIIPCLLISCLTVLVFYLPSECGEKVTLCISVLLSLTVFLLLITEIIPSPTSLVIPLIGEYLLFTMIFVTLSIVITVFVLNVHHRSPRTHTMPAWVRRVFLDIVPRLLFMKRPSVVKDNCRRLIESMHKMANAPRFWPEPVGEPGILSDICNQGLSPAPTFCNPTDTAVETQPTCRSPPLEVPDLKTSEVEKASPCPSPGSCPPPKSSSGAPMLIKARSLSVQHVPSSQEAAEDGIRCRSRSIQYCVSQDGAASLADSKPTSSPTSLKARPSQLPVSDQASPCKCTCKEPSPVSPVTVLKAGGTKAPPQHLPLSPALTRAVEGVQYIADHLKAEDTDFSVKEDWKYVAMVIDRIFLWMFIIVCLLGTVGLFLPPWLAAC
T3 sequence (P12390 25-500): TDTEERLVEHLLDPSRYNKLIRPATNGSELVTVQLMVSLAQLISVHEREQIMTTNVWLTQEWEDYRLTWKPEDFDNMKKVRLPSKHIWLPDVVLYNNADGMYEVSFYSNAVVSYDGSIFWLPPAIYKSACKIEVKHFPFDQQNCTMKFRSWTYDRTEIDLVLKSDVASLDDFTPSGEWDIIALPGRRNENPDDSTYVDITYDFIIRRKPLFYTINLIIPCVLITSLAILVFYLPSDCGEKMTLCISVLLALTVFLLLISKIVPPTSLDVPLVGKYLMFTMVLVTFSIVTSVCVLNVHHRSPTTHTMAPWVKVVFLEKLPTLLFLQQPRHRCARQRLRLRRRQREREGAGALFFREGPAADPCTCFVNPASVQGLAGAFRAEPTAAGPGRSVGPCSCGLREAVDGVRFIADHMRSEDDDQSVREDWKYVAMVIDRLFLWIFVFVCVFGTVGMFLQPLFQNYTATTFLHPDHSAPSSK
Protocol: Preparation of Membranes from Rat Cortex: Rats (Female, Sprague-Dawley), weighing 150-250 g, were maintained on a 12 h light/dark cycle and were allowed free access to water and food supplied by PMI Nutrition International, Inc. Animals were anesthetized with 70% CO2, and then decapitated. Brains were removed and placed on an ice-cold platform. The cerebral cortex was removed and placed in 20 volumes (weight:volume) of ice-cold preparative buffer (137 mM NaCl, 10.7 mM KCl, 5.8 mM KH2PO4, 8 mM Na2HPO4, 20 mM HEPES (free acid), 5 mM iodoacetamide, 1.6 mM EDTA, pH 7.4); PMSF, dissolved in methanol to a final concentration of 100 μM, was added and the suspension was homogenized by Polytron. […]
On the day of the assay, the frozen membranes were thawed and spun at 48,000×g for 20 min. […] Protein concentrations were determined using a Pierce BCA Protein Assay Kit, with bovine serum albumin as the standard (Pierce Chemical Company, Rockford, Ill.).
[…] Filters were then counted to determine radioactivity bound to the membranes by liquid scintillation counting (2200CA Tri-Carb LSC, Packard Instruments, 50% efficiency or Wallac Trilux 1450 MicroBeta, 40% efficiency, Perkin Elmer).
Data were expressed as disintegrations per minute (DPMs). […] Ki values were calculated using the Cheng-Prussof equation (1973): […]

T1 sequence (Q05941 23-502): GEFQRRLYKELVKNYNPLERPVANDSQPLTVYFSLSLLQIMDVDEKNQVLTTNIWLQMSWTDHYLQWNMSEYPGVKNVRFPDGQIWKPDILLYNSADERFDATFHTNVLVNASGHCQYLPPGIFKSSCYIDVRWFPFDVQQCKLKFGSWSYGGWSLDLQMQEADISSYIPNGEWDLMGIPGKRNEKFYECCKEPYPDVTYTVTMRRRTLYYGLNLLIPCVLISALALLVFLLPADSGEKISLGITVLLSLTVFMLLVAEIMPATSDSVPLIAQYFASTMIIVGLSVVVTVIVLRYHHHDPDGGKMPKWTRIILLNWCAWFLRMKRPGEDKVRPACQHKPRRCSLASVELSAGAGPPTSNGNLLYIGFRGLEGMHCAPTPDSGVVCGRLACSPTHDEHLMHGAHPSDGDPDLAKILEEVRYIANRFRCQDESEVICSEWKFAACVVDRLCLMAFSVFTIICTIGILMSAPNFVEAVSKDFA

O=C(N[C@@H]1C2CCN(CC2)[C@H]1Cc1cccnc1)c1cc(F)cc(F)c1 [Compound A]
Ki [1]: 0.1 µM | Ki [2]: 19 µM | Ki [3]: 4.12 µM

From patent US20110312961A1, “2,5-Disubstituted Morpholine Orexin REceptor Antagonists” (priority 2008, published 2011)
